PubChem BioAssay AID248 (DTP/NCI, 2004)
Where “and” joins values, the source holds several entries; their conditions need not be identical. Equal entries are not always repeated. Toxic doses and inconclusive results are not listed.

Test system: L1210 leukemia ip in BDF1 mice, survival T/C
Experiment: NCI In Vivo Anticancer Drug Screen. Data for tumor model L1210 Leukemia (intraperitoneal) in B6D2F1 (BDF1) mice
Conditions: higher = longer survival
In short: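 Survival endpoint. Drug-treated group vs vehicle group, expressed as T divided by C. Tumor passaged by transplantation.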

[1] = endpoint: mean survival time, dose: 100.0 mg/kg/injection, schedule: Q04DX003 (ip), vehicle: saline
[2] = endpoint: mean survival time, dose: 200.0 mg/kg/injection, schedule: Q04DX003 (ip), vehicle: saline
[3] = endpoint: mean survival time, dose: 400.0 mg/kg/injection, schedule: Q04DX003 (ip), vehicle: saline
[4] = endpoint: mean survival time, dose: 50.0 mg/kg/injection, schedule: Q01DX009 (ip), vehicle: saline with Tween-80
[5] = endpoint: mean survival time, dose: 100.0 mg/kg/injection, schedule: Q01DX009 (ip), vehicle: saline with Tween-80
[6] = endpoint: mean survival time, dose: 200.0 mg/kg/injection, schedule: Q01DX009 (ip), vehicle: saline with Tween-80
[7] = endpoint: mean survival time, dose: 400.0 mg/kg/injection, schedule: Q01DX009 (ip), vehicle: saline with Tween-80
[8] = endpoint: mean survival time, dose: 100.0 mg/kg/injection, schedule: Q01DX009 (ip), vehicle: Klucel (hydroxypropylcellulose) (HPC)
[9] = endpoint: mean survival time, dose: 200.0 mg/kg/injection, schedule: Q01DX009 (ip), vehicle: Klucel (hydroxypropylcellulose) (HPC)
[10] = endpoint: mean survival time, dose: 100.0 mg/kg/injection, schedule: Q01DX001 (ip), vehicle: saline
[11] = endpoint: mean survival time, dose: 200.0 mg/kg/injection, schedule: Q01DX001 (ip), vehicle: saline
[12] = endpoint: mean survival time, dose: 400.0 mg/kg/injection, schedule: Q01DX001 (ip), vehicle: saline
[13] = endpoint: mean survival time, dose: 100.0 mg/kg/injection, schedule: Q04DX003 (ip), vehicle: Klucel (hydroxypropylcellulose) (HPC)
[14] = endpoint: mean survival time, dose: 200.0 mg/kg/injection, schedule: Q04DX003 (ip), vehicle: Klucel (hydroxypropylcellulose) (HPC)
[15] = endpoint: mean survival time, dose: 400.0 mg/kg/injection, schedule: Q04DX003 (ip), vehicle: Klucel (hydroxypropylcellulose) (HPC)

For `O=C1CCCCCCNCCCCCC1`, the T/C (endpoint: mean survival time, dose: 100.0 mg/kg/injection, schedule: Q01DX001 (ip), vehicle: acetone) was 97 % of control, the T/C (endpoint: mean survival time, dose: 200.0 mg/kg/injection, schedule: Q01DX001 (ip), vehicle: acetone) was 108 % of control and the T/C (endpoint: mean survival time, dose: 400.0 mg/kg/injection, schedule: Q01DX001 (ip), vehicle: acetone) was 103 % of control.

`Cc1cccc(C(=O)O)n1` was tested, and the T/C (endpoint: mean survival time, dose: 100.0 mg/kg/injection, schedule: Q01DX009 (ip), vehicle: saline) was 103 % of control, the T/C [1] was 104 % of control and the T/C (endpoint: mean survival time, dose: 200.0 mg/kg/injection, schedule: Q01DX009 (ip), vehicle: saline) was 113 % of control. The T/C [2] was 101 % of control, the T/C (endpoint: mean survival time, dose: 400.0 mg/kg/injection, schedule: Q01DX009 (ip), vehicle: saline) was 93 % of control and the T/C [3] was 95 % of control.

`O=C(CCCCn1cnc2c(=S)nc[nH]c21)Nc1ccc(C(=O)O)cc1` was tested, and the T/C (endpoint: mean survival time, dose: 50.0 mg/kg/injection, schedule: Q01DX Z (ip), vehicle: carboxymethylcellulose (CMC)) was 101 % of control, the T/C (endpoint: mean survival time, dose: 100.0 mg/kg/injection, schedule: Q01DX Z (ip), vehicle: carboxymethylcellulose (CMC)) was 95 % of control and the T/C (endpoint: mean survival time, dose: 200.0 mg/kg/injection, schedule: Q01DX Z (ip), vehicle: carboxymethylcellulose (CMC)) was 104 % of control. For the same compound, the T/C (endpoint: mean survival time, dose: 400.0 mg/kg/injection, schedule: Q01DX Z (ip), vehicle: carboxymethylcellulose (CMC)) was 96 % of control.

In the case of `NC(=O)NC(C(=O)O)(c1ccccc1)C1CCC1` (stereo not given), the T/C [4] is reported as 103 % of control, the T/C [5] is reported as 94 % of control and the T/C [6] is reported as 102 % of control. The T/C [7] was 107 % of control.

`CCOC(=O)c1cccc2nc3n(c12)CCC3` was tested, and the T/C [4] was 105 % of control, the T/C (endpoint: mean survival time, dose: 100.0 mg/kg/injection, schedule: Q01DX001 (ip), vehicle: saline with Tween-80) was 101 % of control and the T/C [5] was 95 % of control. The T/C (endpoint: mean survival time, dose: 200.0 mg/kg/injection, schedule: Q01DX001 (ip), vehicle: saline with Tween-80) was 103 % of control and the T/C [6] was 94 % of control.

`O=C1CC(N2C(=O)C3CCCCC3C2=O)C(=O)N1` (stereo not given) was tested, and the T/C [1] was 97 % of control, the T/C [2] was 101 % of control and the T/C [3] was 97 % of control.

`COc1ccc(Cl)cc1N=Cc1cccc([N+](=O)[O-])c1` was tested, and the T/C [8] was 102 % of control, the T/C [9] was 94 % of control and the T/C (endpoint: mean survival time, dose: 400.0 mg/kg/injection, schedule: Q01DX009 (ip), vehicle: Klucel (hydroxypropylcellulose) (HPC)) was 94 % of control.

`CCN=C(c1ccc(NC(=O)c2ccc(C(=O)Nc3ccc(C(=NCC)N(CC)C(=O)NCC(=O)OCC)cc3)cc2)cc1)N(CC)C(=O)NCC(=O)OCC` was tested, and the T/C (endpoint: mean survival time, dose: 3.12 mg/kg/injection, schedule: Q01DX015 (ip), vehicle: methylcellulose (MC)) was 109 % of control, the T/C (endpoint: mean survival time, dose: 12.5 mg/kg/injection, schedule: Q01DX015 (ip), vehicle: methylcellulose (MC)) was 155 % of control and the T/C (endpoint: mean survival time, dose: 25.0 mg/kg/injection, schedule: Q01DX015 (ip), vehicle: methylcellulose (MC)) was 101 % of control.

For `NC1=C(c2ccccc2)C(=O)C(N)=C(c2ccccc2)C1=O`, the T/C (endpoint: mean survival time, dose: 100.0 mg/kg/injection, schedule: Q01DX001 (ip), vehicle: carboxymethylcellulose (CMC)) was 96 % of control, the T/C (endpoint: mean survival time, dose: 200.0 mg/kg/injection, schedule: Q01DX001 (ip), vehicle: carboxymethylcellulose (CMC)) was 88 % of control and the T/C (endpoint: mean survival time, dose: 400.0 mg/kg/injection, schedule: Q01DX001 (ip), vehicle: carboxymethylcellulose (CMC)) was 88 % of control.

In the case of `O=C(N/N=C/c1cccnc1)C(O)C(O)C(O)C(O)CO` (stereo not given), the T/C [10] is reported as 100 % of control, the T/C [11] is reported as 103 % of control and the T/C [12] is reported as 93 % of control.

In the case of `O=C(N/N=C/c1ccccc1)c1ccc(Cl)cc1`, the T/C [13] is reported as 97 % of control, the T/C [14] is reported as 100 % of control and the T/C [15] is reported as 90 % of control.

For `O=C(/C=C/c1ccccc1Cl)c1ccc(F)cc1`, the T/C (endpoint: mean survival time, dose: 100.0 mg/kg/injection, schedule: Q04DX002 (ip), vehicle: saline with Tween-80) was 94 % of control, the T/C (endpoint: mean survival time, dose: 200.0 mg/kg/injection, schedule: Q04DX002 (ip), vehicle: saline with Tween-80) was 94 % of control and the T/C (endpoint: mean survival time, dose: 400.0 mg/kg/injection, schedule: Q04DX002 (ip), vehicle: saline with Tween-80) was 97 % of control.

In the case of `Ic1ccc([I+]c2ccc(I)cc2)cc1`, the T/C (endpoint: mean survival time, dose: 100.0 mg/kg/injection, schedule: Q04DX002 (ip), vehicle: Klucel (hydroxypropylcellulose) (HPC)) is reported as 106 % of control, the T/C (endpoint: mean survival time, dose: 200.0 mg/kg/injection, schedule: Q04DX002 (ip), vehicle: Klucel (hydroxypropylcellulose) (HPC)) is reported as 106 % of control and the T/C (endpoint: mean survival time, dose: 400.0 mg/kg/injection, schedule: Q04DX002 (ip), vehicle: Klucel (hydroxypropylcellulose) (HPC)) is reported as 106 % of control.

With `CC1CCCC1C(=Nc1ccc(Cl)c(Cl)c1)N1CCCCC1` (stereo not given) the T/C [10] was 105 % of control, the T/C [11] was 100 % of control and the T/C [12] was 102 % of control.

`CN(C)CCOC(=O)c1ccccc1CBr` was tested, and the T/C (endpoint: mean survival time, dose: 25.0 mg/kg/injection, schedule: Q01DX009 (ip), vehicle: saline) was 97 % of control, the T/C (endpoint: mean survival time, dose: 50.0 mg/kg/injection, schedule: Q01DX009 (ip), vehicle: saline) was 95 % of control and the T/C (endpoint: mean survival time, dose: 75.0 mg/kg/injection, schedule: Q01DX009 (ip), vehicle: saline) was 93 % of control.

In the case of `O=c1cc(CC(O)(c2ccccc2)c2ccccc2)cc[nH]1`, the T/C [10] is reported as 100 % of control, the T/C [11] is reported as 95 % of control and the T/C [12] is reported as 100 % of control.

`CC1(C)CC2CCC1(Cl)CC2Cl` (stereo not given) was tested, and the T/C (endpoint: mean survival time, dose: 50.0 mg/kg/injection, schedule: Q01DX009 (ip), vehicle: saline + alcohol) was 100 % of control and the T/C (endpoint: mean survival time, dose: 100.0 mg/kg/injection, schedule: Q01DX009 (ip), vehicle: saline + alcohol) was 93 % of control.

For `C[C@]12CC[C@H](O)C[C@H]1CC[C@@H]1[C@@H]2CC[C@]2(C)[C@@H](C3=CC(=O)OC3)CC[C@]12O`, the T/C (endpoint: mean survival time, dose: 50.0 mg/kg/injection, schedule: Q01DX001 (ip), vehicle: carboxymethylcellulose (CMC)) was 101 % of control, the T/C (endpoint: median survival time, dose: 2.0 mg/kg/injection, schedule: Q01DX005 (ip), vehicle: water) was 98 % of control and the T/C (endpoint: median survival time, dose: 4.0 mg/kg/injection, schedule: Q01DX005 (ip), vehicle: water) was 98 % of control. For the same compound, the T/C (endpoint: median survival time, dose: 8.0 mg/kg/injection, schedule: Q01DX005 (ip), vehicle: water) was 103 % of control.

`COc1cc2c3c(c1)/C(=N\Nc1ccccc1)CCN3CCC2` was tested, and the T/C (endpoint: mean survival time, dose: 6.25 mg/kg/injection, schedule: Q01DX009 (ip), vehicle: DMSO) was 90 % of control, the T/C (endpoint: mean survival time, dose: 12.5 mg/kg/injection, schedule: Q01DX009 (ip), vehicle: DMSO) was 91 % of control and the T/C (endpoint: mean survival time, dose: 25.0 mg/kg/injection, schedule: Q01DX009 (ip), vehicle: DMSO) was 93 % of control and 90 % of control. For the same compound, the T/C (endpoint: mean survival time, dose: 25.0 mg/kg/injection, schedule: Q04DX003 (ip), vehicle: DMSO) was 95 % of control, the T/C (endpoint: mean survival time, dose: 50.0 mg/kg/injection, schedule: Q04DX003 (ip), vehicle: DMSO) was 95 % of control and the T/C (endpoint: mean survival time, dose: 100.0 mg/kg/injection, schedule: Q04DX003 (ip), vehicle: DMSO) was 100 % of control. The T/C (endpoint: mean survival time, dose: 200.0 mg/kg/injection, schedule: Q04DX003 (ip), vehicle: gum acacia) was 92 % of control.

In the case of `Cc1sc([N+](=O)[O-])cc1[N+](=O)[O-]`, the T/C (endpoint: mean survival time, dose: 50.0 mg/kg/injection, schedule: Q01DX009 (ip), vehicle: Klucel (hydroxypropylcellulose) (HPC)) is reported as 103 % of control, the T/C [8] is reported as 92 % of control and the T/C [13] is reported as 97 % of control. The T/C [14] was 96 % of control.

With `CCCc1nc2ccccc2[nH]1` the T/C (endpoint: mean survival time, dose: 100.0 mg/kg/injection, schedule: Q04DX003 (ip), vehicle: saline with Tween-80) was 96 % of control and the T/C (endpoint: mean survival time, dose: 200.0 mg/kg/injection, schedule: Q04DX003 (ip), vehicle: saline with Tween-80) was 100 % of control.

In the case of `CCOC(=O)c1ccc(NC(=O)Nc2ccc(F)cc2)cc1`, the T/C [8] is reported as 90 % of control and the T/C [9] is reported as 90 % of control.

With `CCC(=O)Nc1cccc(OC(=O)NCCCl)c1` the T/C [5] was 96 % of control, the T/C [6] was 87 % of control and the T/C [7] was 86 % of control.

With `Cc1ccc(S(=O)(=O)On2cccc2C#N)cc1` the T/C (endpoint: mean survival time, dose: 25.0 mg/kg/injection, schedule: Q01DX009 (ip), vehicle: saline with Tween-80) was 102 % of control, the T/C [4] was 94 % of control and 96 % of control and the T/C [5] was 98 % of control. For the same compound, the T/C [6] was 97 % of control and 102 % of control.

`CCOC(=O)CC(=O)C(F)(F)F.CCOC(=O)CC(=O)C(F)(F)F.[Ni]` was tested, and the T/C (endpoint: mean survival time, dose: 5.0 mg/kg/injection, schedule: Q01DX001 (ip), vehicle: saline) was 96 % of control, the T/C (endpoint: mean survival time, dose: 10.0 mg/kg/injection, schedule: Q01DX001 (ip), vehicle: saline) was 98 % of control and the T/C (endpoint: mean survival time, dose: 20.0 mg/kg/injection, schedule: Q01DX001 (ip), vehicle: saline) was 102 % of control. For the same compound, the T/C (endpoint: mean survival time, dose: 40.0 mg/kg/injection, schedule: Q01DX001 (ip), vehicle: saline) was 106 % of control.

With `N#CC1(Cc2ccccc2)c2ccccc2-c2ccccc21` the T/C [13] was 98 % of control, the T/C [14] was 89 % of control and the T/C [15] was 91 % of control.
